In assay [1] the test system is ARPE19/HPV16, KYSE-70 and Daudi cell lines. As to the kind of experiment: Combination matrix study Compound 67A + PARP inhibitors, cell lines of varying AID expression (Bliss, Loewe). The assay is classed as cell-based. The conditions noted are these: non-tumor derived cell line ARPE19/HPV16; in combination with Compound 67A.
Protocol: The combination matrix was tested in 3 cell lines of varying AID expression: ARPE19/HPV16 (HPV immortalized normal epithelial cell line), KYSE-70 (head and neck cancer cell line) and Daudi (Burkitt's Lymphoma cell line). […] Both the Loewe Additivity model and the Bliss Independence model were used to determine drug interaction (synergistic, independent, or antagonistic).
Bliss Independence model was used and calculated in Excel. The model assumes that the drugs act with probabilistic independence. Bliss: yexp=yA+yB−yAyB
This expected value was generated by examining single-agent effects and then tested against the observed value using a two-tailed Welch's T-Test. For visualization purposes, the values generated from this test were transformed to a “Synergy Score” by doing the computation:
Loewe Additivity model was used and calculated by the “Synergyfinder” R package.
The graphs generated describe the difference between the expected value generated by the additivity model and the observed value generated by the experiment. If the effect determined by the additivity model<the effect observed the space is colored red, if the effect determined by the additivity mode>the effect observed then the space is colored green. The saturation of the color is proportional to the magnitude of the difference between these two values.
For assay [2], the system named is HBCx11 model. Nature of the assay: Tumor growth inhibition, subcutaneous engrafted tumor model. The assay is classed as in vivo, mice. To be noted: HRD Positive, RAD51 High, BRCA1 Mut, PALB2 WT, 67A 80 mg/kg QD, olaparib 100 mg/kg QD, combo both. On the procedure:
(§1) Immunodeficient mice were subcutaneously engrafted in the rear flank with the tumor cells. The tumors were allowed to grow to a size of about 100 to about 200 mm^3 prior to being randomized and grouped into treatment arms. For models […] through […] the four treatment arms were vehicle, Compound 67A at 80 mg/kg QD, olaparib at 100 mg/kg QD, and Compound 67A+Olaparib at 80 mg/kg QD and 100 mg/kg QD, respectively. For models J000101173 through TM00091 the treatment arms were vehicle, Compound 67A at 40 mg/kg QD, olaparib at 50 mg/kg QD, and Compound 67A+Olaparib at 40 mg/kg QD and 50 mg/kg QD, respectively. The tumors were measured either once weekly or twice weekly.
(§2) Percent Tumor Growth Inhibition (% TGI) was calculated by taking the mean volume of each of the treatment arms, and comparing the treatment arms to the vehicle arms using the following equation

For assay [3], the system named is TM000113 model. The description is as above. The assay is classed as in vivo, mice. To be noted: HRD Negative, RAD51 Low, BRCA WT, PALB2 WT, 67A 40 mg/kg QD, olaparib 50 mg/kg QD, combo both. The method, then:
as §1, §2

The test system of assay [4] is TM00096 model. Described as above. The assay is classed as in vivo, mice. To be noted: HRD Positive, RAD51 Low, BRCA WT, PALB2 WT, 67A 40 mg/kg QD, olaparib 50 mg/kg QD, combo both. On the procedure:
as §1, §2

In assay [5] the test system is HBCx17 model. Described as above. Format: in vivo, mice. To be noted: HRD Positive, RAD51 High, BRCA2 Mut, PALB2 WT, 67A 80 mg/kg QD, olaparib 100 mg/kg QD, combo both. The method, then: as §1, §2
Assay [6] concerns T298 model. The assay is described as above. The assay is classed as in vivo, mice. The conditions noted are these: HRD Positive, RAD51 Low, BRCA WT, PALB2 Mut, 67A 80 mg/kg QD, olaparib 100 mg/kg QD, combo both. The method, then: as §1, §2
For assay [7], the system named is TM01079 model. Described as above. The assay is classed as in vivo, mice. The conditions noted are these: HRD Positive, RAD51 Low, BRCA1 Meth, PALB2 WT, 67A 40 mg/kg QD, olaparib 50 mg/kg QD, combo both. The method, then:
as §1, §2

In assay [8] the test system is HBCx12B model. Described as above. The assay is classed as in vivo, mice. The conditions noted are these: HRD Positive, RAD51 High, BRCA1 Meth, PALB2 WT, 67A 80 mg/kg QD, olaparib 100 mg/kg QD, combo both. On the procedure: as §1, §2
Assay [9] has as its system HBCx16 model. The assay is described as above. To be noted: HRD Positive, RAD51 High, BRCA1 Meth, PALB2 WT, 67A 80 mg/kg QD, olaparib 100 mg/kg QD, combo both. The assay is classed as in vivo, mice. On the procedure: as §1, §2
In assay [10] the test system is TM00090 model. The description is as above. Format: in vivo, mice. The conditions noted are these: HRD Positive, RAD51 Low, BRCA1 Meth, BRCA2 Mut, PALB2 WT, 67A 40 mg/kg QD, olaparib 50 mg/kg QD, combo both. On the procedure: as §1, §2
Assay [11] has as its system HBCx27 model. The assay is described as above. The assay is classed as in vivo, mice. To be noted: HRD Negative, RAD51 High, BRCA WT, PALB2 WT, 67A 80 mg/kg QD, olaparib 100 mg/kg QD, combo both. The method, then:
as §1, §2

The subject of assay [12] is J000100675 model. The description is as above. The assay is classed as in vivo, mice. To be noted: HRD Negative, RAD51 Low, BRCA WT, PALB2 WT, 67A 40 mg/kg QD, olaparib 50 mg/kg QD, combo both. On the procedure:
as §1, §2

In assay [13] the test system is HBCx1 model. The assay is described as above. Format: in vivo, mice. To be noted: HRD Positive, RAD51 High, BRCA WT, PALB2 WT, 67A 80 mg/kg QD, olaparib 100 mg/kg QD, combo both. On the procedure:
as §1, §2

Assay [14] deals with J000101173 model. The description is as above. The assay is classed as in vivo, mice. To be noted: HRD Positive, RAD51 Low, BRCA WT, PALB2 WT, 67A 40 mg/kg QD, olaparib 50 mg/kg QD, combo both. On the procedure:
as §1, §2

Assay [15] relates to TM00091 model. The description is as above. Format: in vivo, mice. The conditions noted are these: HRD Positive, RAD51 High, BRCA1 Mut, PALB2 WT, 67A 40 mg/kg QD, olaparib 50 mg/kg QD, combo both. The method, then:
as §1, §2

In assay [16] the test system is HBCx23 model. The assay is described as above. Format: in vivo, mice. To be noted: HRD Positive, RAD51 High, BRCA1 Meth, PALB2 WT, 67A 80 mg/kg QD, olaparib 100 mg/kg QD, combo both. On the procedure: as §1, §2

Regarding `O=C(c1cc(Cc2n[nH]c(=O)c3ccccc23)ccc1F)N1CCN(C(=O)C2CC2)CC1` [Olaparib, olaparib, reference compound], the “Drug interaction with Compound 67A (synergy)” value in assay [1] is recorded as “synergy observed”. For the same compound, the “% TGI” value in [2] was 60.95%; in assay [3], 2.37%; in [4], −1.94%; in assay [5] it was 122%; in assay [6], 107%; in [7] it was 68.7%. The “% TGI” value in assay [8] was 42.56%; in [9], −25.61%; in [10], 86.05%; in assay [11], 7.819%; in assay [12] it was −17%; in assay [13], 51.07%. Further, the “% TGI” value in assay [14] was determined as 4.71%; in assay [15], 21.26%; in assay [16], 84.48%.
